Patent US20260022142A1, “MACROCYCLIC IMMUNOMODULATORS” (Bristol-Myers Squibb Company, priority 2022, published 2026)
Bridge positions count the residues as written; N and C are the ends. Square brackets hold non-standard residues; d marks the D form. Peptide text beside a SMILES is read from it. * marks the point of attachment. ξ: configuration not given here. Bip = N[C@@H](Cc1ccc(-c2ccccc2)cc1)C(=O)O; Phe(3-Me) = Cc1cccc(C[C@H](N)C(=O)O)c1; hhGln = NC(=O)CCCC[C@H](N)C(=O)O; Cha = N[C@@H](CC1CCCCC1)C(=O)O; Cit = NC(=O)NCCC[C@H](N)C(=O)O; Carboxymethyl = O=C(O)C*; Orn = NCCC[C@H](N)C(=O)O; Aun = NCCCCCCCCCCC(=O)O; Dab = NCC[C@H](N)C(=O)O; Dap = NC[C@H](N)C(=O)O; AEEA = NCCOCCOCC(=O)O; ξC = NC(CS)C(=O)O

Biological target: T1, PD-1/PD-L1 interaction (PE-labeled human PD-L1-Ig binding to Jurkat cell line over-expressing human PD-1) (Homo sapiens, UniProt Q15116)
T1 construct: expressed in transfected cells; host or cells: Jurkat
T1 sequence (Q15116 25-288): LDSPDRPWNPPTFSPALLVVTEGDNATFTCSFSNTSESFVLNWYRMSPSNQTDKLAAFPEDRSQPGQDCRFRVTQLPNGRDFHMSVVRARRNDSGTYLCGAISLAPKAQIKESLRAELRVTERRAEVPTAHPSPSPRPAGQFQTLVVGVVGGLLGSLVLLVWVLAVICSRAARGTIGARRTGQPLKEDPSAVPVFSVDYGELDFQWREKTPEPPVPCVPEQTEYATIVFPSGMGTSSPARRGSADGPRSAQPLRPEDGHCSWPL
Assay: Jurkat-PD-1 Cell Binding High-Content Screening Assay (CBA)
Format: cell-based
Settings: Jurkat cell line over-expressing human PD-1; PE-labeled PD-L1-Ig 20 nM final; read-out: Jurkat hPD1-PDL1 IC50
Procedure, shortened: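 Jurkat cells over-expressing human PD-1 (8×10^3 per well, DMEM/10% FCS) preincubated with compound 2 h at 37° C, then PE-labeled human PD-L1-Ig (20 nM final) added for 1 h. Cells fixed with paraformaldehyde, Hoechst-stained, and bound fluorescence quantified by high-content imaging.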

| IC50 [nM] | Structure (SMILES) |
| --- | --- |
| 8.6 | Cc1cccc(C[C@@H]2NC(=O)[C@H](CC(=O)O)NC(=O)[C@H](Cc3ccc(OCC(=O)O)cc3)NC(=O)[C@H](CN)NC(=O)CSC[C@@H](C(=O)NCCOCCOCC(=O)N[C@@H](CCN)C(=O)NCCCCCCCCCCC(=O)O)NC(=O)[C@H](CCCN)NC(=O)[C@H](C(C)C)NC(=O)[C@H](CC3CCCCC3)NC(=O)[C@H](CCN)NC(=O)[C@@H](CC(C)C)NC(=O)[C@H](CCCN)NC(=O)[C@H](CCCNC(N)=O)NC(=O)[C@H](Cc3ccc(-c4ccccc4)cc3)NC(=O)[C@H](C(C)C)NC2=O)c1 [Compound 2629] ({CH2CO}-[Dap]Y(Carboxymethyl)D[Phe(3-Me)]V[Bip][Cit][Orn][dL][Dab][Cha]V[Orn]C[AEEA][Dab][Aun]-OH; thioether N-14) |
| 9.9 | CC[C@H](C)[C@@H]1NC(=O)[C@H](Cc2ccc(-c3ccccc3)cc2)NC(=O)[C@H](C(C)C)NC(=O)[C@H](Cc2cccc(C)c2)NC(=O)[C@H](CC(=O)O)NC(=O)[C@H](Cc2ccc(OCC(=O)O)cc2)NC(=O)[C@H](CN)NC(=O)CSC[C@@H](C(=O)NCCOCCOCC(=O)N[C@@H](CCN)C(=O)NCCCCCCCCCCC(=O)O)NC(=O)[C@H](CCCN)NC(=O)[C@H](C(C)C)NC(=O)[C@H](CC2CCCCC2)NC(=O)[C@H](CCN)NC(=O)[C@@H](CC(C)C)NC(=O)[C@H](CCCN)NC1=O [Compound 2630] ({CH2CO}-[Dap]Y(Carboxymethyl)D[Phe(3-Me)]V[Bip]I[Orn][dL][Dab][Cha]V[Orn]C[AEEA][Dab][Aun]-OH; thioether N-14) |
| 14.1 | CC(C)C[C@H]1NC(=O)[C@H](CCCN)NC(=O)[C@H](CCCCC(N)=O)NC(=O)[C@H](Cc2ccc(-c3ccccc3)cc2)NC(=O)[C@H](C(C)C)NC(=O)[C@H](Cc2c[nH]c3ccccc23)NC(=O)[C@H](CC(=O)O)NC(=O)[C@H](Cc2ccc(OCC(=O)O)cc2)NC(=O)[C@H](CN)NC(=O)CSC[C@@H](C(=O)N[C@@H](CCN)C(=O)NCCOCCOCC(=O)NCCCCCCCCCCC(=O)O)NC(=O)[C@H](CCCCN)NC(=O)[C@H](C(C)C)NC(=O)[C@H](CC2CCCCC2)NC(=O)[C@H](CCN)NC1=O [Compound 2631] ({CH2CO}-[Dap]Y(Carboxymethyl)DWV[Bip][hhGln][Orn][dL][Dab][Cha]VKC[Dab][AEEA][Aun]-OH; thioether N-14) |
| 12.4 | CC[C@H](C)[C@@H]1NC(=O)[C@H](Cc2ccc(-c3ccccc3)cc2)NC(=O)[C@H](C(C)C)NC(=O)[C@H](Cc2c[nH]c3ccccc23)NC(=O)[C@H](CC(=O)O)NC(=O)[C@H](Cc2ccc(OCC(=O)O)cc2)NC(=O)[C@H](CN)NC(=O)CSC[C@@H](C(=O)N[C@@H](CCN)C(=O)NCCOCCOCC(=O)NCCCCCCCCCCC(=O)O)NC(=O)[C@H](CCCCN)NC(=O)[C@H](C(C)C)NC(=O)[C@H](CC2CCCCC2)NC(=O)[C@H](CCN)NC(=O)[C@@H](CC(C)C)NC(=O)[C@H](CCCN)NC1=O [Compound 2632] ({CH2CO}-[Dap]Y(Carboxymethyl)DWV[Bip]I[Orn][dL][Dab][Cha]VKC[Dab][AEEA][Aun]-OH; thioether N-14) |
| 16.4 | Cc1cccc(C[C@@H]2NC(=O)[C@H](CC(=O)O)NC(=O)[C@H](Cc3ccc(OCC(=O)O)cc3)NC(=O)[C@H](CN)NC(=O)CSC[C@@H](C(=O)N[C@@H](CCN)C(=O)NCCOCCOCC(=O)NCCCCCCCCCCC(=O)O)NC(=O)[C@H](CN)NC(=O)[C@H](C(C)C)NC(=O)[C@H](CC3CCCCC3)NC(=O)[C@H](CCN)NC(=O)[C@@H](CC(C)C)NC(=O)[C@H](CCCN)NC(=O)[C@H](CCCNC(N)=O)NC(=O)[C@H](Cc3ccc(-c4ccccc4)cc3)NC(=O)[C@H](C(C)C)NC2=O)c1 [Compound 2633] ({CH2CO}-[Dap]Y(Carboxymethyl)D[Phe(3-Me)]V[Bip][Cit][Orn][dL][Dab][Cha]V[Dap]C[Dab][AEEA][Aun]-OH; thioether N-14) |
| 14.1 | CC[C@H](C)[C@@H]1NC(=O)[C@H](Cc2ccc(-c3ccccc3)cc2)NC(=O)[C@H](C(C)C)NC(=O)[C@H](Cc2cccc(C)c2)NC(=O)[C@H](CC(=O)O)NC(=O)[C@H](Cc2ccc(OCC(=O)O)cc2)NC(=O)[C@H](CN)NC(=O)CSC[C@@H](C(=O)N[C@@H](CCN)C(=O)NCCOCCOCC(=O)NCCCCCCCCCCC(=O)O)NC(=O)[C@H](CN)NC(=O)[C@H](C(C)C)NC(=O)[C@H](CC2CCCCC2)NC(=O)[C@H](CCN)NC(=O)[C@@H](CC(C)C)NC(=O)[C@H](CCCN)NC1=O [Compound 2634] ({CH2CO}-[Dap]Y(Carboxymethyl)D[Phe(3-Me)]V[Bip]I[Orn][dL][Dab][Cha]V[Dap]C[Dab][AEEA][Aun]-OH; thioether N-14) |
| 10.3 | Cc1cccc(C[C@@H]2NC(=O)[C@H](CC(=O)O)NC(=O)[C@H](Cc3ccc(OCC(=O)O)cc3)NC(=O)[C@H](CN)NC(=O)CSC[C@@H](C(=O)N[C@@H](CCN)C(=O)NCCOCCOCC(=O)NCCCCCCCCCCC(=O)O)NC(=O)[C@H](CCCNC(=N)N)NC(=O)[C@H](C(C)C)NC(=O)[C@H](CC3CCCCC3)NC(=O)[C@H](CCN)NC(=O)[C@@H](CC(C)C)NC(=O)[C@H](CCCN)NC(=O)[C@H](CCCNC(N)=O)NC(=O)[C@H](Cc3ccc(-c4ccccc4)cc3)NC(=O)[C@H](C(C)C)NC2=O)c1 [Compound 2635] ({CH2CO}-[Dap]Y(Carboxymethyl)D[Phe(3-Me)]V[Bip][Cit][Orn][dL][Dab][Cha]VRC[Dab][AEEA][Aun]-OH; thioether N-14) |
| 22.5 | CC[C@H](C)[C@@H]1NC(=O)[C@H](Cc2ccc(-c3ccccc3)cc2)NC(=O)[C@H](C(C)C)NC(=O)[C@H](Cc2cccc(C)c2)NC(=O)[C@H](CC(=O)O)NC(=O)[C@H](Cc2ccc(OCC(=O)O)cc2)NC(=O)[C@H](CN)NC(=O)CSC[C@@H](C(=O)N[C@@H](CCN)C(=O)NCCOCCOCC(=O)NCCCCCCCCCCC(=O)O)NC(=O)[C@H](CCCNC(=N)N)NC(=O)[C@H](C(C)C)NC(=O)[C@H](CC2CCCCC2)NC(=O)[C@H](CCN)NC(=O)[C@@H](CC(C)C)NC(=O)[C@H](CCCN)NC1=O [Compound 2636] ({CH2CO}-[Dap]Y(Carboxymethyl)D[Phe(3-Me)]V[Bip]I[Orn][dL][Dab][Cha]VRC[Dab][AEEA][Aun]-OH; thioether N-14) |
| 15.5 | Cc1cccc(C[C@@H]2NC(=O)[C@H](CC(=O)O)NC(=O)[C@H](Cc3ccc(OCC(=O)O)cc3)NC(=O)[C@H](CN)NC(=O)CSC[C@@H](C(=O)N[C@@H](CCCCN)C(=O)NCCCCCCCCCCC(=O)O)NC(=O)[C@H](CN)NC(=O)[C@H](C(C)C)NC(=O)[C@H](CC3CCCCC3)NC(=O)[C@H](CCN)NC(=O)[C@@H](CC(C)C)NC(=O)[C@H](CCCN)NC(=O)[C@H](CCCNC(N)=O)NC(=O)[C@H](Cc3ccc(-c4ccccc4)cc3)NC(=O)[C@H](C(C)C)NC2=O)c1 [Compound 2637] ({CH2CO}-[Dap]Y(Carboxymethyl)D[Phe(3-Me)]V[Bip][Cit][Orn][dL][Dab][Cha]V[Dap]CK[Aun]-OH; thioether N-14) |
| 19 | CC[C@H](C)[C@@H]1NC(=O)[C@H](Cc2ccc(-c3ccccc3)cc2)NC(=O)[C@H](C(C)C)NC(=O)[C@H](Cc2cccc(C)c2)NC(=O)[C@H](CC(=O)O)NC(=O)[C@H](Cc2ccc(OCC(=O)O)cc2)NC(=O)[C@H](CN)NC(=O)CSC[C@@H](C(=O)N[C@@H](CCCCN)C(=O)NCCCCCCCCCCC(=O)O)NC(=O)[C@H](CN)NC(=O)[C@H](C(C)C)NC(=O)[C@H](CC2CCCCC2)NC(=O)[C@H](CCN)NC(=O)[C@@H](CC(C)C)NC(=O)[C@H](CCCN)NC1=O [Compound 2638] ({CH2CO}-[Dap]Y(Carboxymethyl)D[Phe(3-Me)]V[Bip]I[Orn][dL][Dab][Cha]V[Dap]CK[Aun]-OH; thioether N-14) |
| 8.1 | CC[C@H](C)[C@@H]1NC(=O)[C@H](Cc2ccc(-c3ccccc3)cc2)NC(=O)[C@H](C(C)C)NC(=O)[C@H](Cc2cccc(C)c2)NC(=O)[C@H](CC(=O)O)NC(=O)[C@H](Cc2ccc(OCC(=O)O)cc2)NC(=O)[C@H](CN)NC(=O)CSC[C@@H](C(=O)N[C@@H](CCCCN)C(=O)NCCCCCCCCCCC(=O)O)NC(=O)[C@H](CCCN)NC(=O)[C@H](C(C)C)NC(=O)[C@H](CC2CCCCC2)NC(=O)[C@H](CCN)NC(=O)[C@@H](CC(C)C)NC(=O)[C@H](CCCN)NC1=O [Compound 2640] ({CH2CO}-[Dap]Y(Carboxymethyl)D[Phe(3-Me)]V[Bip]I[Orn][dL][Dab][Cha]V[Orn]CK[Aun]-OH; thioether N-14) |
| 27.7 | Cc1cccc(C[C@@H]2NC(=O)[C@H](CC(=O)O)NC(=O)[C@H](Cc3ccc(OCC(=O)O)cc3)NC(=O)[C@H](CN)NC(=O)CSC[C@@H](C(=O)N[C@@H](CCCCN)C(=O)NCCCCCCCCCCC(=O)O)NC(=O)[C@H](CCCNC(N)=O)NC(=O)[C@H](C(C)C)NC(=O)[C@H](CC3CCCCC3)NC(=O)[C@H](CCN)NC(=O)[C@@H](CC(C)C)NC(=O)[C@H](CCCN)NC(=O)[C@H](CCCNC(N)=O)NC(=O)[C@H](Cc3ccc(-c4ccccc4)cc3)NC(=O)[C@H](C(C)C)NC2=O)c1 [Compound 2641] ({CH2CO}-[Dap]Y(Carboxymethyl)D[Phe(3-Me)]V[Bip][Cit][Orn][dL][Dab][Cha]V[Cit]CK[Aun]-OH; thioether N-14) |
| 7.2 | CC(C)C[C@H]1NC(=O)[C@H](CCCN)NC(=O)[C@H](CCCNC(N)=O)NC(=O)[C@H](Cc2ccc(-c3ccccc3)cc2)NC(=O)[C@H](C(C)C)NC(=O)[C@H](Cc2c[nH]c3ccccc23)NC(=O)[C@H](CC(=O)O)NC(=O)[C@H](Cc2ccc(OCC(=O)O)cc2)NC(=O)[C@H](CN)NC(=O)CSCC(C(=O)NCCOCCOCC(=O)NCCCCCCCCCCC(=O)O)NC(=O)[C@H](CCCCN)NC(=O)[C@H](C(C)C)NC(=O)[C@H](CC2CCCCC2)NC(=O)[C@H](CCN)NC1=O (stereo partly drawn) [Compound 2643] ({CH2CO}-[Dap]Y(Carboxymethyl)DWV[Bip][Cit][Orn][dL][Dab][Cha]VK[ξC][AEEA][Aun]-OH; thioether N-14) |
